Measurements published in patent US8609672B2, “Piperazinylpyrimidine analogues as protein kinase inhibitors” (University of the Pacific, priority 2010, dated 2013).

Experiments:
MDA-MB-231/ATCC = test: NCI-60 SRB growth inhibition: MDA-MB-231/ATCC; type: cell-based, human; settings: Breast cancer, 48 hours treatment
COLO 205 = test: NCI-60 SRB growth inhibition: COLO 205; type: cell-based, human; settings: COLO 205, Colon cancer, 48 hours treatment; for CC50: Homo sapiens, read-out: LC50 (the source's name)
CSNK1D = target: T1, CSNK1D (Homo sapiens, UniProt P48730); test: Kinase binding screening: CSNK1D; settings: 10 μM compound, read-out: B-POC (binding percentage of control)
T1 construct: purchased Ambit Bioscience (assay service)
T1 sequence (P48730 whole entry): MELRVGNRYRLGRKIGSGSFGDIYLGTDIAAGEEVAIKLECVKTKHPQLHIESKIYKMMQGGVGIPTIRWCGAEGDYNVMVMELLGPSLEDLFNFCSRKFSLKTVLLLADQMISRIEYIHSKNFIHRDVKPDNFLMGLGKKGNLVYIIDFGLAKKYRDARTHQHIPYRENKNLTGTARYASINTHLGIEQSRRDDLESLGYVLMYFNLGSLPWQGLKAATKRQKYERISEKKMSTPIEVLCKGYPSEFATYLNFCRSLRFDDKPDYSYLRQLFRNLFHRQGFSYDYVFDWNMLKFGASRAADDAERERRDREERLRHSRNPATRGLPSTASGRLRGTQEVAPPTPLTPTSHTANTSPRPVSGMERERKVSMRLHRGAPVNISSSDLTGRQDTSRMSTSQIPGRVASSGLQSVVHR
Method: Biotinylated kinase ligand was immobilized onto streptavidin coated magnetic beads and washed with blocking buffer. The liganded beads were then incubated with DNA-tagged kinase in the presence of test compound for 1 h at room temperature. Binding reactions were carried out in 20% Seablock, 0.17×PBS, 0.005% Tween 20, 6 mM DTT, in a final volume of 0.04 mL. Beads were then washed with wash buffer (PBS, 0.05% Tween 20), and then incubated with elution buffer (PBS, 0.05% Tween […] non-biotinylated kinase ligand) and eluted. The kinase concentration in the eluate was then measured by quantitative PCR. […] The results of this single dose screening are reported in the form of binding percentage of control (B-POC) which is defined as follows:
[formula] The negative control signal is obtained by the vehicle and corresponds to B-POC=100%. The positive signal control is detected by a binding positive compound and is B-POC 0%. The B-POC results are the average of duplicate measurements. Only interactions with […] were considered significant and thus used for calculating the selectivity scores (Table 1) of the test compounds as follows:
[formula] […] The Kd is then calculated according to the following equation:
[formula] hill slope=−1. A non-linear least square fit with the Levenberg-Marquardt algorithm was implemented to fit the curves (FIG. 3). Kinase binding assays were performed by Ambit Bioscience (San Diego, Calif., USA).
The results of kinase binding assay are shown in Table 1, which includes the B-POC values of 10 μM of compounds 4, 15, and 16 against the most sensitive kinases tested within this binding experiment. […] Kinases within the same subfamily are highlighted. […] Both the B-POC and Kd values are the average of duplicate measurements.
J. et al. Bioorganic and Medicinal Chemistry Letters 2009, 19, 1206-1209; Chao, Q. et al. Journal of Medicinal Chemistry 2009, 52, 7808-7816.). A single dose of 10 μM was chosen to allow for detecting kinases able to bind to the test compounds. In this binding assay, a set of 243 kinases were included. […]

SF-295 = test: NCI-60 SRB growth inhibition: SF-295; type: cell-based, human; settings: for CC50: Homo sapiens, SF-295, 48 h, read-out: LC50 (the source's name); for TGI: SF-295, CNS cancer, 48 hours treatment
DU-145 = test: NCI-60 SRB growth inhibition: DU-145; type: cell-based, human; settings: for TGI: DU-145, Prostate cancer, 48 hours treatment; for CC50: Homo sapiens, DU-145, 48 h, read-out: LC50 (the source's name)
HCT-116 = test: NCI-60 SRB growth inhibition: HCT-116; type: cell-based; settings: HCT-116, Colon cancer; 48 hours treatment
NCI-H522 = test: NCI-60 SRB growth inhibition: NCI-H522; type: cell-based, human; settings: NCI-H522, Non-small cell lung cancer; 48 hours treatment
MDA-MB-468 = test: NCI-60 SRB growth inhibition: MDA-MB-468; type: cell-based, human; settings: MDA-MB-468, Breast cancer, 48 hours treatment; for CC50: Homo sapiens, read-out: LC50 (the source's name)
NCI-H226 = test: NCI-60 SRB growth inhibition: NCI-H226; type: cell-based, human; settings: NCI-H226, Non-small cell lung cancer; 48 hours treatment
SW-620 = test: NCI-60 SRB growth inhibition: SW-620; type: cell-based, human; settings: SW-620, Colon cancer, 48 hours treatment; for CC50: Homo sapiens, read-out: LC50 (the source's name)
UACC-257 = test: NCI-60 SRB growth inhibition: UACC-257; type: cell-based, human; settings: for CC50: Homo sapiens, UACC-257, 48 h, read-out: LC50 (the source's name); for TGI: UACC-257, Melanoma, 48 hours treatment
NCI-H23 = test: NCI-60 SRB growth inhibition: NCI-H23; type: cell-based, human; settings: NCI-H23, Non-small cell lung cancer; 48 hours treatment
ABL kinase = target: T2, ABL kinase (Homo sapiens, UniProt P00519); test: Functional kinase inhibition assay: ABL; type: biochemical; settings: 1 μM compound
T2 construct: purchased Millipore Corp. (Dundee, UK; assay service)
T2 sequence (P00519 whole entry): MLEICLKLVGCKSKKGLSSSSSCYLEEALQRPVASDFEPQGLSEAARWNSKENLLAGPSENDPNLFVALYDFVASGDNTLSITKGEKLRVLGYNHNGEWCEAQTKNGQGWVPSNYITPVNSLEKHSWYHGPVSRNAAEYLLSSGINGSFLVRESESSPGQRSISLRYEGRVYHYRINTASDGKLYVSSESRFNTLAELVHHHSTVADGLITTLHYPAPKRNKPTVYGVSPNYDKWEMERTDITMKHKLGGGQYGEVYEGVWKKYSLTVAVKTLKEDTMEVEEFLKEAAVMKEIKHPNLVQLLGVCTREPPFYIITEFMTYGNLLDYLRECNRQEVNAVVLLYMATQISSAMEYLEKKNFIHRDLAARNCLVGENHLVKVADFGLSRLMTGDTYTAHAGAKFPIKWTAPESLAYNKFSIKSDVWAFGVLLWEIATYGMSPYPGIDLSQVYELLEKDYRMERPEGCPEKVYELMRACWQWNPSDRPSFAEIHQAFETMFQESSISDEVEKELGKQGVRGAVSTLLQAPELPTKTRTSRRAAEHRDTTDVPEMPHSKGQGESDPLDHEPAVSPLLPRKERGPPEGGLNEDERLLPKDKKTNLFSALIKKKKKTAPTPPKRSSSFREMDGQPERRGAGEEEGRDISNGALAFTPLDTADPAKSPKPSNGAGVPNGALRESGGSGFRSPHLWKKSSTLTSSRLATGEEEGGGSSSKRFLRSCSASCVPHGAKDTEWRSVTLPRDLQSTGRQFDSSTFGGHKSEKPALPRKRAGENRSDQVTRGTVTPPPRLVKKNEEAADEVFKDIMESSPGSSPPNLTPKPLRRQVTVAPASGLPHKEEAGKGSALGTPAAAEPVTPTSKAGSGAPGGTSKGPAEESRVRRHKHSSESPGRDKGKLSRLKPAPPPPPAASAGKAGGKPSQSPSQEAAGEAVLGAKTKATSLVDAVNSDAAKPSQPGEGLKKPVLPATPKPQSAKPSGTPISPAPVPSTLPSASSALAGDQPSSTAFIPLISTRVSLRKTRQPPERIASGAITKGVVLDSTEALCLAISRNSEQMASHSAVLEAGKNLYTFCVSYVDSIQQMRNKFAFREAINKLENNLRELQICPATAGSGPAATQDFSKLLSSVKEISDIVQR
Method: [formula] The assay was performed in duplicates.
The results of kinase function inhibition assay are shown in Table 6, including the F-POC of 1 μM of compounds 4, 15, and 16 against the most sensitive kinases tested within this experiment. […] Kinases within the same subfamily are highlighted.

MCF7 = test: NCI-60 SRB growth inhibition: MCF7; type: cell-based, human; settings: MCF7, Breast cancer; 48 hours treatment
UACC-62 = test: NCI-60 SRB growth inhibition: UACC-62; type: cell-based, human; settings: UACC-62, Melanoma; 48 hours treatment
SNB-19 = test: NCI-60 SRB growth inhibition: SNB-19; type: cell-based, human; settings: SNB-19, CNS cancer, 48 hours treatment; for CC50: Homo sapiens, read-out: LC50 (the source's name)
NCI-H322M = test: NCI-60 SRB growth inhibition: NCI-H322M; type: cell-based, human; settings: Non-small cell lung cancer, 48 hours treatment
M0LT-4 = test: NCI-60 SRB growth inhibition: M0LT-4; type: cell-based, human; settings: M0LT-4, Leukemia; 48 hours treatment

| SMILES | TGI (MDA-MB-231/ATCC) | TGI (COLO 205) | CC50 (COLO 205) | remaining activity at 10 µM (CSNK1D) | CC50 (SF-295) | TGI (SF-295) | TGI (DU-145) | CC50 (DU-145) | TGI (HCT-116) | TGI (NCI-H522) | CC50 (MDA-MB-468) | TGI (MDA-MB-468) | TGI (NCI-H226) | CC50 (SW-620) | TGI (SW-620) | CC50 (UACC-257) | TGI (UACC-257) | TGI (NCI-H23) | inhibitory action over ABL kinase function (ABL kinase) | TGI (MCF7) | also measured |
| --- | --- | --- | --- | --- | --- | --- | --- | --- | --- | --- | --- | --- | --- | --- | --- | --- | --- | --- | --- | --- | --- |
| c1ccc(Cc2cnc(N3CCN(c4ncnc5ccccc45)CC3)nc2)cc1 [Compound 4, 4-(4-(5-benzylpyrimidin-2-yl)piperazin-1-yl)quinazoline] | 38.10 µM | >100 µM | > 100 µM | 26% | > 100 µM | 26.00 µM | 30.70 µM | 79.8 µM | 13.20 µM | 40.30 µM | > 100 µM | 2.73 µM | 48.40 µM | 59.9 µM | 27.70 µM | 41.4 µM | 16.80 µM | 30.80 µM | without affecting ABL subfamily members | 58.20 µM | TGI (UACC-62): 25.90 µM; CC50 (SNB-19): > 100 µM; TGI (SNB-19): >100 µM; TGI (NCI-H322M): >100 µM; TGI (M0LT-4): 40.60 µM |
| CCc1cnc(N2CCN(C(=O)c3ccc(CNc4ncnc5ccccc45)cc3)CC2)nc1 [Compound 15, (4-(5-ethylpyrimidin-2-yl)piperazin-1-yl)(4-((quinazolin-4-ylamino)methyl)phenyl)methanone] | 84.90 µM | 38.20 µM | > 100 µM | 23% | > 100 µM | 23.10 µM | >100 µM | > 100 µM | 25.00 µM | 55.40 µM | > 100 µM | 2.22 µM | >100 µM | > 100 µM | 45.10 µM | > 100 µM | 26.80 µM | 33.30 µM | weak inhibitory action | 72.80 µM | TGI (UACC-62): 80.90 µM; CC50 (SNB-19): > 100 µM; TGI (SNB-19): >100 µM; TGI (NCI-H322M): >100 µM; TGI (M0LT-4): 27.60 µM |
| O=C(c1cccc(Nc2ncnc3ccccc23)c1)N1CCN(c2ncc(Cc3ccccc3)cn2)CC1 [Compound 16, (4-(5-benzylpyrimidin-2-yl)piperazin-1-yl)(3-(quinazolin-4-ylamino)phenyl)methanone] | 2.95 µM | 2.75 µM | 5.5 µM | 22% | > 100 µM | 2.24 µM | 6.46 µM | > 100 µM | 3.55 µM | 2.09 µM | > 100 µM | 3.47 µM | 2.09 µM | > 100 µM | 4.27 µM | 5.37 µM | 2.63 µM | 2.69 µM | weak inhibitory action | 2.29 µM | TGI (UACC-62): 1.86 µM; CC50 (SNB-19): > 100 µM; TGI (SNB-19): 8.91 µM; TGI (NCI-H322M): 4.79 µM; TGI (M0LT-4): 1.34 µM |
